Laboratory results published in ChEMBL document CHEMBL4265921, “Novel bisphosphonates with antiresorptive effect in bone mineralization and osteoclastogenesis” (Eur J Med Chem, 2018).
Active and inactive are the calls of the source. The rule behind the calls is not given here.

Experiments:
MG-63 [1] = experiment: Antiproliferative activity against human MG63 cells assessed as reduction in cell viability at 2.14 uM after 72 hrs by WST8 assay; format: functional, cell-based
PC-3 [2] = experiment: Antiproliferative activity against human PC3 cells assessed as reduction in cell viability at 2.14 uM after 72 hrs by WST8 assay; format: functional, cell-based
Bone marrow cell [3] = experiment: Induction of mineralization in C57BL mouse bone marrow cells co-cultured with human PC3 cells at 50 to 100 nM supplemented with fresh medium containing compound every 3 days for 10 to 15 days by alizarin red dye based assay; format: functional
Hydroxyapatite = experiment: Binding affinity to hydroxyapatite at 100 uM using sodium salt form of compound after 5 mins by ESI/MS analysis
J774.A1 [4] = experiment: Antiproliferative activity against mouse J774A.1 cells assessed as reduction in cell viability at 100 uM after 72 hrs by WST8 assay; format: functional, cell-based
RAW264.7 [5] = experiment: Antiproliferative activity against RANKL-differentiated mouse RAW264.7 cells assessed as reduction in cell viability at 100 uM after 72 hrs by CCK8 assay; format: functional, cell-based
Bone marrow cell [6] = experiment: Induction of mineralization in C57BL mouse bone marrow cells at >50 nM supplemented with fresh medium containing compound every 3 days for 10 to 15 days by alizarin red dye based assay; format: functional
PC-3 [7] = experiment: Antiproliferative activity against human PC3 cells assessed as reduction in cell viability at 100 uM after 72 hrs by WST8 assay; format: functional, cell-based
MG-63 [8] = experiment: Antiproliferative activity against human MG63 cells assessed as reduction in cell viability at 100 uM after 72 hrs by WST8 assay; format: functional, cell-based
Bone marrow cell [9] = experiment: Cytotoxicity against C57BL mouse bone marrow cells assessed as effect on cell proliferation at 0.03 to 500 uM after 72 hrs by crystal violet staining based assay
RAW264.7 [10] = experiment: Antiproliferative activity against mouse RAW264.7 cells assessed as reduction in cell viability at 100 uM after 72 hrs by WST8 assay; format: functional, cell-based
Bone marrow cell [11] = experiment: Induction of mineralization in C57BL mouse bone marrow cells at 50 nM supplemented with fresh medium containing compound every 3 days for 10 to 15 days by alizarin red dye based assay; format: functional
RAW264.7 [12] = experiment: Inhibition of RANKL-induced osteoclastogenesis in mouse RAW264.7 cells after 72 hrs by TRAP staining based microscopic analysis; format: functional, cell-based
Bone marrow cell [13] = experiment: Induction of mineralization in C57BL mouse bone marrow cells co-cultured with human PC3 cells at >100 nM supplemented with fresh medium containing compound every 3 days for 10 to 15 days by alizarin red dye based assay; format: functional
MC3T3-E1 [14] = experiment: Induction of mineralization in mouse MC3T3-E1 cells at >500 nM after 10 to 15 days by alizarin red dye based assay; format: functional, cell-based
MG-63 [15] = experiment: Antiproliferative activity against human MG63 cells assessed as change in cell proliferation at 100 uM after 72 hrs by crystal violet staining based assay relative to control; format: functional
MC3T3-E1 [16] = experiment: Induction of mineralization in mouse MC3T3-E1 cells at 30 to 50 nM after 10 to 15 days by alizarin red dye based assay; format: functional, cell-based
MG-63 [17] = experiment: Antiproliferative activity against human MG63 cells assessed as reduction in cell proliferation at 500 uM after 72 hrs by crystal violet staining based assay; format: functional
PC-3 [18] = experiment: Antiproliferative activity against human PC3 cells assessed as reduction in cell proliferation at 500 uM after 72 hrs by crystal violet staining based assay; format: functional
PC-3 [19] = experiment: Antiproliferative activity against human PC3 cells assessed as change in cell proliferation at 100 uM after 72 hrs by crystal violet staining based assay relative to control; format: functional
Bone marrow cell [20] = experiment: Induction of cell proliferation in C57BL mouse bone marrow cells at 30 nM after 72 hrs by crystal violet staining based assay; conditions: 0.03 µM
RAW264.7 [21] = experiment: Antiproliferative activity against mouse RAW264.7 cells assessed as change in cell proliferation at 100 uM after 72 hrs by crystal violet staining based assay relative to control; format: functional
RAW264.7 [22] = experiment: Antiproliferative activity against mouse RAW264.7 cells assessed as reduction in cell proliferation at 500 uM after 72 hrs by crystal violet staining based assay; format: functional
[23] = molecular target: T1, Farnesyl pyrophosphate synthase (Homo sapiens) (UniProt P14324); experiment: Inhibition of recombinant human C-terminal His6-tagged FPPS expressed in Escherichia coli BL21 at 100 uM using DMAPP and IPP as substrates pretreated for 15 mins followed by substrates addition and measured after 1 hr by colorimetric method relative to control
T1 sequence (whole entry): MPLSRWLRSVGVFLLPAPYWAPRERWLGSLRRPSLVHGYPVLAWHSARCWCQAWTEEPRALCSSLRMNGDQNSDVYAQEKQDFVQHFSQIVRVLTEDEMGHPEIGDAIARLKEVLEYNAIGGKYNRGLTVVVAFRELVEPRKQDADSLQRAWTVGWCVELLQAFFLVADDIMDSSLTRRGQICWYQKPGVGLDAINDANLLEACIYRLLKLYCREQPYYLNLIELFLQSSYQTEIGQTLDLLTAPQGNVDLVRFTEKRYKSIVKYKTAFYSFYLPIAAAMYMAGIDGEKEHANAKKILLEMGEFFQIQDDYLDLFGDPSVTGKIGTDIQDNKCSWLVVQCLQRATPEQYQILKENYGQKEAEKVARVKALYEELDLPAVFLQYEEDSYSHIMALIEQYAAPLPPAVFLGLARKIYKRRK

J774.A1 [24] = experiment: Antiproliferative activity against mouse J774A.1 cells assessed as reduction in cell proliferation at 500 uM after 72 hrs by crystal violet staining based assay; format: functional
[25] = molecular target: T2, Farnesyl pyrophosphate synthase (Homo sapiens, UniProt P14324); experiment: Inhibition of recombinant human C-terminal His6-tagged FPPS expressed in Escherichia coli BL21 using DMAPP and IPP as substrates pretreated for 15 mins followed by substrates addition and measured after 1 hr by colorimetric method
T2 sequence (P14324 whole entry): T1 sequence (whole entry)

[26] = molecular target: T1, Farnesyl pyrophosphate synthase (Homo sapiens); experiment: Inhibition of recombinant human C-terminal His6-tagged FPPS expressed in Escherichia coli BL21 at 1 to 10 uM using DMAPP and IPP as substrates pretreated for 15 mins followed by substrates addition and measured after 1 hr by colorimetric method relative to control
[27] = molecular target: T3, Geranylgeranyl pyrophosphate synthase (Homo sapiens) (UniProt O95749); experiment: Inhibition of recombinant human C-terminal His6-tagged GGPPS expressed in Escherichia coli BL21 at 1 to 10 uM using IPP and FPP as substrates pretreated for 15 mins followed by substrates addition and measured after 1 hr by colorimetric method relative to control
T3 sequence (whole entry): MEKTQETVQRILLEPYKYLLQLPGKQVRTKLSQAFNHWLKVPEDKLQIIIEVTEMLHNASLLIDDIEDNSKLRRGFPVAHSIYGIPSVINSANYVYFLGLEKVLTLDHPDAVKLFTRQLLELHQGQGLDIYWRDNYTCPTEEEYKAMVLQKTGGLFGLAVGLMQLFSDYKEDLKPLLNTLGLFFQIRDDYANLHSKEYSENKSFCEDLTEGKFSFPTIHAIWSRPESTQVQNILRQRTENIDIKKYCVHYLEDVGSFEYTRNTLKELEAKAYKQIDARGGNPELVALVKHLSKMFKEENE

J774.A1 [28] = experiment: Antiproliferative activity against mouse J774A.1 cells assessed as change in cell proliferation at 100 uM after 72 hrs by crystal violet staining based assay relative to control; format: functional
Bone marrow cell [29] = experiment: Cytotoxicity against C57BL mouse bone marrow cells assessed as decrease in cell proliferation at 100 to 500 uM after 72 hrs by crystal violet staining based assay; set-up: scale not given: the % may be the effect or the level left
Bone marrow cell [30] = experiment: Induction of cell proliferation in C57BL mouse bone marrow cells at 100 nM after 72 hrs by crystal violet staining based assay; conditions: 0.1 µM

Compound | Activity (Bone marrow cell [3]) | Activity (Hydroxyapatite) [%] | Activity (J774.A1 [4]) | Activity (RAW264.7 [5]) | Activity (Bone marrow cell [6]) | Activity (PC-3 [7]) | Activity (MG-63 [8]) | Activity (Bone marrow cell [9]) | Activity (RAW264.7 [10]) | Activity (Bone marrow cell [11]) | inhibition (RAW264.7 [12]) | Activity (Bone marrow cell [13]) | Activity (MC3T3-E1 [14]) | Activity (MG-63 [15]) [%] | Activity (MC3T3-E1 [16]) | Activity (PC-3 [19]) [%] | Activity (RAW264.7 [21]) [%] | Activity (J774.A1 [28]) [%] | other results
CN[C@@H]1C[C@H]2O[C@@](C)([C@@H]1OC)n1c3ccccc3c3c4c(c5c6ccccc6n2c5c31)C(=O)NC4 |  |  |  |  |  |  |  |  |  |  |  |  |  |  |  |  |  |  | Activity (MG-63 [1]): Active; Activity (PC-3 [2]): Active
O=P(O)(O)C(O)(Cc1cccnc1)P(=O)(O)O [RISEDRONIC ACID] | inactive | 87 | Active | Active | inactive | Active | Active | Non-Toxic | Active | Active | Active | inactive | inactive |  |  |  |  |  | 
NCCCC(O)(P(=O)(O)O)P(=O)(O)O [ALENDRONIC ACID] | inactive |  | Active | Active | inactive | Active | Active | Non-Toxic | Active | Active | Active | inactive | inactive |  |  |  |  |  | 
O=P(O)(O)C(O)(CNc1ncccn1)P(=O)(O)O | Active | 90 | Active | Active | inactive | Active | Active |  | Active | Active | Active | inactive | inactive | -16.295 | Active | -29.682 | -47.365 | -31.512 | Activity (MG-63 [17]): inactive; Activity (PC-3 [18]): inactive; Activity (Bone marrow cell [20]): Toxic; Activity (RAW264.7 [22]): inactive; inhibition [23]: 96%; Activity (J774.A1 [24]): inactive; IC50 [25]: 310 nM; inhibition [26]: 68 to 79%; inhibition [27]: 68 to 79%
O.O=P(O)(O)C(O)(Cn1ccnc1)P(=O)(O)O [ZOLEDRONIC ACID] | Active | > 95 | Active | Active | inactive | Active | Active |  | Active | Active | Active | inactive | inactive | -27.901 | Active | -28.408 | -54.523 | -60.657 | Activity (Bone marrow cell [29]): 20%; Activity (Bone marrow cell [30]): Toxic
